# Results as given in PubChem BioAssay AID1963980 (Molecular Pharmacology Branch, DTP, NCI, 2024).
# Tested on: 475296-252-R-J1-PDC spheroid viability
# Test: Anticancer human tumor 475296-252-R-J1-PDC patient-derived rectal carcinoma cell line growth inhibition [PI3K]
# Settings: spheroids with HUVEC and MSC; for IC50: curve of first compound; for viability, T/C: stronger effect = lower value
# Method in brief: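 Combination activity was assessed by viability in multicellular tumor spheroids carrying HUVEC and MSC components. Agents were tested with PI3K inhibitors from a Cmax-based top dose (or 10 microM) downward in half-log increments.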
# [1] = second compound 0.0316 µM, first compound 0.0316 µM
# [2] = second compound 0.0316 µM, first compound 0.1 µM
# [3] = second compound 0.0316 µM, first compound 0.316 µM
# [4] = second compound 0.0316 µM, first compound 1 µM
# [5] = second compound 0.0316 µM, first compound 3.16 µM
# [6] = second compound 0.0316 µM, first compound 10 µM
# [7] = second compound 0.1 µM, first compound 0.0316 µM
# [8] = second compound 0.1 µM, first compound 0.1 µM
# [9] = second compound 0.1 µM, first compound 0.316 µM
# [10] = second compound 0.1 µM, first compound 1 µM
# [11] = second compound 0.1 µM, first compound 3.16 µM
# [12] = second compound 0.1 µM, first compound 10 µM
# [13] = second compound 0.316 µM, first compound 0.0316 µM
# [14] = second compound 0.316 µM, first compound 0.1 µM
# [15] = second compound 0.316 µM, first compound 0.316 µM
# [16] = second compound 0.316 µM, first compound 1 µM
# [17] = second compound 0.316 µM, first compound 3.16 µM
# [18] = second compound 0.316 µM, first compound 10 µM
# [19] = second compound 1 µM, first compound 0.0316 µM
# [20] = second compound 1 µM, first compound 0.1 µM
# [21] = second compound 1 µM, first compound 0.316 µM
# [22] = second compound 1 µM, first compound 1 µM
# [23] = second compound 1 µM, first compound 3.16 µM
# [24] = second compound 1 µM, first compound 10 µM
# [25] = second compound 3.16 µM, first compound 0.0316 µM
# [26] = second compound 3.16 µM, first compound 0.1 µM
# [27] = second compound 3.16 µM, first compound 0.316 µM
# [28] = second compound 3.16 µM, first compound 1 µM
# [29] = second compound 3.16 µM, first compound 3.16 µM
# [30] = second compound 3.16 µM, first compound 10 µM
# [31] = second compound 10 µM, first compound 0.0316 µM
# [32] = second compound 10 µM, first compound 0.1 µM
# [33] = second compound 10 µM, first compound 0.316 µM
# [34] = second compound 10 µM, first compound 1 µM
# [35] = second compound 10 µM, first compound 3.16 µM
# [36] = second compound 10 µM, first compound 10 µM
# 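Also: spheroids exposed to agents for seven days before readout.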
structure (smiles),measurement,setting,value
CC(C)NCC(C(=O)N1CCN(c2ncnc3c2C(C)CC3O)CC1)c1ccc(Cl)cc1 (stereo not drawn) + Cc1nc(NC(=O)N2CCCC2C(N)=O)sc1-c1ccnc(C(C)(C)C(F)(F)F)c1,IC50,second compound 0.0316 µM,> 10 µM
same,IC50,second compound 0.1 µM,> 10 µM
same,IC50,second compound 0.316 µM,> 10 µM
same,IC50,second compound 1 µM,> 10 µM
same,IC50,second compound 3.16 µM,> 10 µM
same,IC50,second compound 10 µM,> 10 µM
same,"viability, T/C",[1],98%
same,"viability, T/C",[2],90.3%
same,"viability, T/C",[3],92%
same,"viability, T/C",[4],89.3%
same,"viability, T/C",[5],78.9%
same,"viability, T/C",[6],70.3%
same,"viability, T/C",[7],89.4%
same,"viability, T/C",[8],93.3%
same,"viability, T/C",[9],92.7%
same,"viability, T/C",[10],80.3%
same,"viability, T/C",[11],62.4%
same,"viability, T/C",[12],58.2%
same,"viability, T/C",[13],93.2%
same,"viability, T/C",[14],95.1%
same,"viability, T/C",[15],88.3%
same,"viability, T/C",[16],92.5%
same,"viability, T/C",[17],68.3%
same,"viability, T/C",[18],58.9%
same,"viability, T/C",[19],85%
same,"viability, T/C",[20],92.7%
same,"viability, T/C",[21],88.2%
same,"viability, T/C",[22],90%
same,"viability, T/C",[23],81.3%
same,"viability, T/C",[24],58.7%
same,"viability, T/C",[25],82.5%
same,"viability, T/C",[26],96.6%
same,"viability, T/C",[27],88.8%
same,"viability, T/C",[28],89.4%
same,"viability, T/C",[29],77.7%
same,"viability, T/C",[30],65.8%
same,"viability, T/C",[31],96%
same,"viability, T/C",[32],81.3%
same,"viability, T/C",[33],89.3%
same,"viability, T/C",[34],85%
same,"viability, T/C",[35],77.2%
same,"viability, T/C",[36],64.3%
CCN1CCN(Cc2ccc(Nc3ncc(F)c(-c4cc(F)c5nc(C)n(C(C)C)c5c4)n3)nc2)CC1 + Cc1nc(NC(=O)N2CCCC2C(N)=O)sc1-c1ccnc(C(C)(C)C(F)(F)F)c1,IC50,second compound 0.0316 µM,> 1 µM
same,IC50,second compound 0.1 µM,> 1 µM
same,IC50,second compound 0.316 µM,> 1 µM
same,IC50,second compound 1 µM,> 1 µM
same,IC50,second compound 3.16 µM,> 1 µM
same,IC50,second compound 10 µM,> 1 µM
same,"viability, T/C","second compound 0.0316 µM, first compound 0.00316 µM",95.8%
same,"viability, T/C","second compound 0.0316 µM, first compound 0.01 µM",93.4%
same,"viability, T/C",[1],107%
same,"viability, T/C",[2],90%
same,"viability, T/C",[3],114%
same,"viability, T/C",[4],104%
same,"viability, T/C","second compound 0.1 µM, first compound 0.00316 µM",95.8%
same,"viability, T/C","second compound 0.1 µM, first compound 0.01 µM",97.8%
same,"viability, T/C",[7],112%
same,"viability, T/C",[8],90.4%
same,"viability, T/C",[9],98.8%
same,"viability, T/C",[10],84.3%
same,"viability, T/C","second compound 0.316 µM, first compound 0.00316 µM",107%
same,"viability, T/C","second compound 0.316 µM, first compound 0.01 µM",105%
same,"viability, T/C",[13],87.6%
same,"viability, T/C",[14],99.4%
same,"viability, T/C",[15],98%
same,"viability, T/C",[16],88.6%
same,"viability, T/C","second compound 1 µM, first compound 0.00316 µM",81.4%
same,"viability, T/C","second compound 1 µM, first compound 0.01 µM",90.5%
same,"viability, T/C",[19],98.7%
same,"viability, T/C",[20],88.5%
same,"viability, T/C",[21],89.2%
same,"viability, T/C",[22],87.7%
same,"viability, T/C","second compound 3.16 µM, first compound 0.00316 µM",98.2%
same,"viability, T/C","second compound 3.16 µM, first compound 0.01 µM",108%
same,"viability, T/C",[25],82.5%
same,"viability, T/C",[26],95%
same,"viability, T/C",[27],90.7%
same,"viability, T/C",[28],73.1%
same,"viability, T/C","second compound 10 µM, first compound 0.00316 µM",93.3%
same,"viability, T/C","second compound 10 µM, first compound 0.01 µM",88.3%
same,"viability, T/C",[31],96.7%
same,"viability, T/C",[32],81.1%
same,"viability, T/C",[33],90.4%
same,"viability, T/C",[34],70.4%
Cn1ncc(Cl)c1-c1cc(C(=O)NC(CN)Cc2cccc(F)c2)sc1Cl (stereo not drawn) + Cc1nc(NC(=O)N2CCCC2C(N)=O)sc1-c1ccnc(C(C)(C)C(F)(F)F)c1,IC50,second compound 0.0316 µM,> 10 µM
same,IC50,second compound 0.1 µM,> 10 µM
same,IC50,second compound 0.316 µM,> 10 µM
same,IC50,second compound 1 µM,> 10 µM
same,IC50,second compound 3.16 µM,8.01 µM
same,IC50,second compound 10 µM,4.16 µM
same,"viability, T/C",[1],91.1%
same,"viability, T/C",[2],74.3%
same,"viability, T/C",[3],75.3%
same,"viability, T/C",[4],67.1%
same,"viability, T/C",[5],71.3%
same,"viability, T/C",[6],67.4%
same,"viability, T/C",[7],96.9%
same,"viability, T/C",[8],85.2%
same,"viability, T/C",[9],66.8%
same,"viability, T/C",[10],54%
same,"viability, T/C",[11],64.4%
same,"viability, T/C",[12],67.4%
same,"viability, T/C",[13],77.6%
same,"viability, T/C",[14],83.5%
same,"viability, T/C",[15],73.4%
same,"viability, T/C",[16],55.9%
same,"viability, T/C",[17],67.3%
same,"viability, T/C",[18],54%
same,"viability, T/C",[19],84.5%
same,"viability, T/C",[20],85.4%
same,"viability, T/C",[21],78%
same,"viability, T/C",[22],58.5%
same,"viability, T/C",[23],62.8%
same,"viability, T/C",[24],51.2%
same,"viability, T/C",[25],83.1%
same,"viability, T/C",[26],78.8%
same,"viability, T/C",[27],84.2%
same,"viability, T/C",[28],67%
same,"viability, T/C",[29],61.5%
same,"viability, T/C",[30],47.2%
same,"viability, T/C",[31],84.8%
same,"viability, T/C",[32],78.8%
same,"viability, T/C",[33],81.7%
same,"viability, T/C",[34],69.3%
same,"viability, T/C",[35],57.6%
same,"viability, T/C",[36],28.5%
Cn1nccc1Nc1nccc(-c2ccn(C(CO)c3ccc(Cl)c(F)c3)c(=O)c2)n1 (stereo not drawn) + Cc1nc(NC(=O)N2CCCC2C(N)=O)sc1-c1ccnc(C(C)(C)C(F)(F)F)c1,IC50,second compound 0.0316 µM,> 10 µM
same,IC50,second compound 0.1 µM,> 10 µM
same,IC50,second compound 0.316 µM,> 10 µM
same,IC50,second compound 1 µM,> 10 µM
same,IC50,second compound 3.16 µM,> 10 µM
same,IC50,second compound 10 µM,1.44 µM
same,"viability, T/C",[1],108%
same,"viability, T/C",[2],94.2%
same,"viability, T/C",[3],106%
same,"viability, T/C",[4],88.9%
same,"viability, T/C",[5],99.6%
same,"viability, T/C",[6],79.2%
same,"viability, T/C",[7],95.8%
same,"viability, T/C",[8],87.3%
same,"viability, T/C",[9],94.6%
same,"viability, T/C",[10],91.4%
same,"viability, T/C",[11],99.6%
same,"viability, T/C",[12],75.9%
same,"viability, T/C",[13],105%
same,"viability, T/C",[14],108%
same,"viability, T/C",[15],87.2%
same,"viability, T/C",[16],85%
same,"viability, T/C",[17],81.1%
same,"viability, T/C",[18],68.5%
same,"viability, T/C",[19],92.1%
same,"viability, T/C",[20],91.5%
same,"viability, T/C",[21],91%
same,"viability, T/C",[22],84.5%
same,"viability, T/C",[23],88%
same,"viability, T/C",[24],59.9%
same,"viability, T/C",[25],85.9%
same,"viability, T/C",[26],89.3%
same,"viability, T/C",[27],79.8%
same,"viability, T/C",[28],79.1%
same,"viability, T/C",[29],58.8%
same,"viability, T/C",[30],50.7%
same,"viability, T/C",[31],87.7%
same,"viability, T/C",[32],86%
same,"viability, T/C",[33],83.7%
same,"viability, T/C",[34],63.1%
same,"viability, T/C",[35],21.8%
same,"viability, T/C",[36],8.46%
